Several values for one entry are separate records, joined by “and”; a condition that tells them apart may be missing. Equal entries are not always repeated.
Tests used:
A549 cells = assay: Cytotoxicity potentiation assay; type: cell-based; conditions: test compound 0.4 μM, ratio of IC50 of topotecan alone to IC50 of topotecan with test compound
Description: A549 cells (ATCC, Rockville, Md.) were seeded into 96-well cell culture plates (Falcon brand, Fisher Scientific, Pittsburgh, Pa.) 16 to 24 hours before experimental manipulation. Cells were then treated with a test compound (or a combination of test compounds where indicated) each at a concentration of 0.4 μM for either 3 days or 5 days. At the end of treatments, relative cell number was determined either by MTT assay or SRB assay. For the MTT assay, 0.2 μg/μl of MTT (3-(4,5-dimethylthiazol-2-yl)-2,5-diphenyltetrazolium bromide) (Sigma Chemical Co., St. Louis, Mo.) was added to each well of a plate, and the plate was incubated in a cell-culture incubator for 4 hours. Metabolized MTT in each well was solubilized in 150 μl of DMSO (Sigma Chemical Co.) with shaking and quantified with a Wallac 1420 Victor plate reader (EG&G Wallac, Gaithersburg, Md.) at 540 nm. For the SRB assay, cells were fixed with 10% trichloroacetic acid (Sigma Chemical Co) for an hour at 4° C. After extensively washing, fixed cells were stained for 30 minutes with 0.4% sulforhodamine B (SRB, Sigma Chemical Co.) in 1% acetic acid (Sigma Chemical Co). Unbound SRB was washed away with 1% acetic acid. Then the cultures were air-dried, and dye was solubilized with 10 mM unbuffered Tris base (Sigma Chemical Co) with shaking. The bound dye was measured photometrically with the Wallac Victor plate reader at 515 nm. The ratio of the OD (optical density) value of a compound-treated culture to the OD value of a mock-treated culture, expressed in percentage, was used to quantify the cytotoxicity of a compound. […] To quantify the potentiation of the cytotoxicity of topotecan or temozolomide by test compounds, a dimensionless parameter PF50 is used and is defined as the ratio of the IC50 of topotecan or temozolomide alone to the IC50 of topotecan or temozolomide in combination with a test compound. For the compounds of the invention, PF50 values were determined by testing with topotecan.

purified PARP protein = purified PARP protein (Homo sapiens, UniProt P09874); assay: PARP enzyme inhibition assay; type: biochemical; conditions: 20 nM purified PARP (5 nM for tight-binding inhibitors), 500 μM NAD+, 25° C.; several values in one cell = repeat determinations; read-out: Inhibition Constant Ki
purified PARP protein, sequence (P09874 whole entry): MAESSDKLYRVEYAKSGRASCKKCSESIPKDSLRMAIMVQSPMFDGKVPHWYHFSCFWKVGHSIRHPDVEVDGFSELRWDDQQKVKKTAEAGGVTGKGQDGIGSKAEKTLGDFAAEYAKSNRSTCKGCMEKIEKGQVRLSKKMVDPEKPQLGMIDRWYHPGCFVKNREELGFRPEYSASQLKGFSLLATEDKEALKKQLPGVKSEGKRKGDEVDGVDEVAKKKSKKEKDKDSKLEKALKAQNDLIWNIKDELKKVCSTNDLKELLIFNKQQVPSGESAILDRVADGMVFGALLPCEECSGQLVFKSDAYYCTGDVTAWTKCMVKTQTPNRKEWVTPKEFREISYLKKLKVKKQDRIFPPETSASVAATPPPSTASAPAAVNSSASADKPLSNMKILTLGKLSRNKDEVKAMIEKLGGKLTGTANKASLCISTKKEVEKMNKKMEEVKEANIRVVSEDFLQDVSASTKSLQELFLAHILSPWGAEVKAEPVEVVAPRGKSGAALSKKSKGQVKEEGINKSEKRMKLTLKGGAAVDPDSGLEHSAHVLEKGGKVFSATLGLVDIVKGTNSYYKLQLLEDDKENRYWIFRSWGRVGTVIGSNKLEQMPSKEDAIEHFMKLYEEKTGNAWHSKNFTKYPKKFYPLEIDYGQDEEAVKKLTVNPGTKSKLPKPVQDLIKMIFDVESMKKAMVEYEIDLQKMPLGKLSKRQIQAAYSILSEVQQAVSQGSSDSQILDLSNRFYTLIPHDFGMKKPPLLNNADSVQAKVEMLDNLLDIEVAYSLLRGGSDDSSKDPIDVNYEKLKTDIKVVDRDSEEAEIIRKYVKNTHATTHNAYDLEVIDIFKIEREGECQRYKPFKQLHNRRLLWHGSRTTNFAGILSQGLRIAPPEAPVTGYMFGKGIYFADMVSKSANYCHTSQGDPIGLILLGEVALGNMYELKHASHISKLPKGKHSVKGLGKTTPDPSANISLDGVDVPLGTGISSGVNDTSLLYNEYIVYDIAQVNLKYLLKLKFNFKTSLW

SMILES | Ki (purified PARP protein) | melting point | Cytotoxicity Potentiation PF50 (A549 cells)
O=C1NCCn2c(-c3ccc(Cl)cc3)cc3cccc1c32 [Example 34, 6-(4-Chlorophenyl)-3,4-dihydro-2H-[1,4]diazepino[6,7,1-hi]indol-1-one] | 11 nM | 178 to 180 °C | 1.8
CNCc1cccc(-c2nc3cccc4c3n2CCNC4=O)c1 [Example 59, 1-(3-Methylaminomethyl-phenyl)-8,9-dihydro-7H-2,7,9a-triaza-benzo[cd]azulen-6-one] | 4.2 nM | 110 °C (dec.) | 1.8
O=C1NCCn2c(-c3ccc(CN4CCOCC4)cc3)nc3cccc1c32 [Example 76, 1-(4-Morpholin-4-ylmethyl-phenyl)-8,9-dihydro-7H-2,7,9a-triaza-benzo[cd]azulen-6-one] | 5.1 nM | 285 to 286 °C (dec.) | 1.6
CNCc1ccc(-c2nc3cc(F)cc4c3n2CCNC4=O)cc1 [Example 98, 4-Fluoro-1-(4-methylaminomethyl-phenyl)-8,9-dihydro-7H-2,7,9a-triaza-benzo[cd]azulen-6-one] | 3.3 nM | 204 to 208 °C (dec.) | 2.1
CN(C)Cc1ccc(-c2nc3cc(F)cc4c3n2CCNC4=O)cc1 [Example 99, 4-Fluoro-1-(4-dimethylaminomethyl-phenyl)-8,9-dihydro-7H-2,7,9a-triaza-benzo[cd]azulen-6-one] | 1.7 nM | 240 °C (dec.) | 2.0
O=C1NCCn2c(-c3ccc(CNC4CC4)cc3)nc3cccc1c32 [Example 101, 1-(4-Cyclopropylaminomethyl-phenyl)-8,9-dihydro-7H-2,7,9a-triaza-benzo[cd]azulen-6-one] | 2.3 nM | 84 °C (dec.) | 2.1
CN(C)CCc1ccc(-c2nc3cccc4c3n2CCNC4=O)cc1 [Example 129, 1-[4-(2-Dimethylamino-ethyl)-phenyl]-8,9-dihydro-7H-2,7,9a-triaza-benzo[cd]azulen-6-one] | 5 nM | > 98 °C (dec.) | 1.9
O=C1NCCn2c(-c3ccc(C4CCNCC4)cc3)nc3cccc1c32 [Example 137, 1-(4-Piperidin-4-yl-phenyl)-8,9-dihydro-7H-2,7,9a-triaza-benzo[cd]azulen-6-one] | 5.4 nM | > 192 °C (dec.) | 2.2
O=C1NCCn2c(-c3ccc(C4CCCNC4)cc3)nc3cccc1c32 (stereo not drawn) [Example 142, 1-(4-Piperidin-3-yl-phenyl)-8,9-dihydro-7H-2,7,9a-triaza-benzo[cd]azulen-6-one] | 3.8 nM | > 230 °C (dec.) | 2.2
CN(C)Cc1ccc(-c2cc3cc(F)cc4c3n2CCNC4=O)cc1 [Example 170, 6-(4-Dimethylaminomethyl-phenyl)-9-fluoro-3,4-dihydro-2H-[1,4]diazepino[6,7,1-hi]indol-1-one] | 3.1 nM | 172 to 174 °C | 1.9

More lines, main results first:

Ki (purified PARP protein) | melting point | SMILES | Cytotoxicity Potentiation PF50 (A549 cells)
1.9 nM | 169 to 172 °C | CNCc1ccc(-c2nc3cccc4c3n2CCNC4=O)cc1 [Example 75, 1-(4-Methylaminomethyl-phenyl)-8,9-dihydro-7H-2,7,9a-triaza-benzo[cd]azulen-6-one] | 1.8
6.9 nM | 154 to 157 °C | COCCNCc1ccc(-c2nc3cccc4c3n2CCNC4=O)cc1 [Example 77, 1-(4-[(2-Methoxyethylamino)methyl]-phenyl)-8,9-dihydro-7H-2,7,9a-triaza-benzo[cd]azulen-6-one] | 1.7
9.1 nM | 98 to 100 °C | CN(C)Cc1cccc(-c2cc3cccc4c3n2CCNC4=O)c1 [Example 86, 6-(3-Dimethylaminomethyl-phenyl)-3,4-dihydro-2H-[1,4]diazepino[6,7,1-hi]indol-1-one] | 1.6
3.2 nM and 4.2 nM | > 300 °C (dec.) | O=C1NCCn2c(-c3ccc(-n4ccnc4)cc3)nc3cccc1c32 [Example 119, 1-(4-Imidazol-1-yl-phenyl)-8,9-dihydro-7H-2,7,9a-triaza-benzo[cd]azulen-6-one] | 2.2
4.1 nM | 277 to 279 °C | O=C1NCCn2c(-c3ccc(-c4ccccn4)cc3)nc3cccc1c32 [Example 126, 1-(4-Pyridin-2-yl-phenyl)-8,9-dihydro-7H-2,7,9a-triaza-benzo[cd]azulen-6-one] | 2.2
4 nM and 5.4 nM | > 201 °C (dec.) | O=C1NCCn2c(-c3ccc(CCN4CCCC4)cc3)nc3cccc1c32 [Example 128, 1-[4-(2-Pyrrolidin-1-yl-ethyl)-phenyl]-8,9-dihydro-7H-2,7,9a-triaza-benzo[cd]azulen-6-one] | 1.8
4.4 nM and 5.6 nM | 263 to 265 °C | O=C1NCCn2c(-c3ccc(C4CCCCN4)cc3)nc3cccc1c32 (stereo not drawn) [Example 130, 1-(4-Piperidin-2-yl-phenyl)-8,9-dihydro-7H-2,7,9a-triaza-benzo[cd]azulen-6-one] | 3.4
6.8 nM | > 180 °C (dec.) | CN1CCCCC1c1ccc(-c2nc3cccc4c3n2CCNC4=O)cc1 (stereo not drawn) [Example 132, 1-[4-(1-Methyl-piperidin-2-yl)-phenyl]-8,9-dihydro-7H-2,7,9a-triaza-benzo[cd]azulen-6-one] | 2.4
2.8 nM | 284 to 286 °C | O=C1NCCn2c(-c3ccc(-c4cccnc4)cc3)nc3cccc1c32 [Example 134, 1-(4-Pyridin-3-yl-phenyl)-8,9-dihydro-7H-2,7,9a-triaza-benzo[cd]azulen-6-one] | 2.5
5.5 nM | > 240 °C (dec.) | CN1CCC(c2ccc(-c3nc4cccc5c4n3CCNC5=O)cc2)CC1 [Example 141, 1-[4-(1-Methyl-piperidin-4-yl)-phenyl]-8,9-dihydro-7H-2,7,9a-triaza-benzo[cd]azulen-6-one] | 2.3
2.8 nM | 220 to 223 °C (dec.) | O=C1NCCn2c(-c3ccc(C4CCCN4)cc3)nc3cccc1c32 (stereo not drawn) [Example 148, 1-(4-Pyrrolidin-2-yl-phenyl)-8,9-dihydro-7H-2,7,9a-triaza-benzo[cd]azulen-6-one] | 2.5
4.2 nM | 235 to 238 °C (dec.) | CN1CCCC1c1ccc(-c2nc3cccc4c3n2CCNC4=O)cc1 (stereo not drawn) [Example 149] | 2.6

Reference: patent US6548494B1, “Tricyclic inhibitors of poly(ADP-ribose) polymerases” (Agouron Pharmaceuticals, Inc., priority 1999, dated 2003)
